Entries after “also recorded” stand apart in the source; their conditions may differ.
What was measured:
[1] = tested on: immortalized human MELA cells; test: Calcium imaging (Fluo-4, KCl 140 mM stimulation) on cells of a central core disease patient; format: cell-based; conditions: 7 days in differentiation medium, not statistically significant
Description: The MELA cells are immortalized human cells derived from a biopsy of a patient suffering from central core disease, including in particular a quantitative defect of RyR1 and a calcium release defect (Rendu et al., 2013). These cells were immortalised by the team of Vincent Mouly (Institute of Myology, Paris).
(§1) The medium has been renewed 4 days after placing in the differentiation medium.
(§2) For human cells, the shape of the cells not allowing them to be distinguished individually in an accurate manner, the measurements were made on a single region of interest per well corresponding to the total surface covered by the myotubes. 4 to 6 wells were measured for each repetition of the experiment.
(§3) Fulvestrant was tested on human muscle cells having or not a calcium release defect (human cells CTRL or MELA), by incubation of 7 days in differentiation medium.

[2] = tested on: recombinant RyR1 cells (RyR1-Rec murine myotubes); conditions: 72 h, 0.1 µM
Procedure: The satellite cells were isolated from the skeletal muscles of the lower limbs of the neonate mice RyR1^Ctrl according to the procedure described in Marty et al, 2000.
The cells were seeded in 96 well plates (75,000 cells/well) previously coated with laminin. The cells were first cultured in the proliferation medium composed of Ham's F-10 Nutrient Mix (Life Technologies), 20% fetal calf serum (Life Technologies), 2% Ultroser G (PALL) and 2% Penicillin-Streptomycin (Life Technologies).
In order to induce floxed RyR1 gene recombination, the cells thus have been transduced 12 hours after seeding with adenoviruses allowing the expression of Cre recombinase, AdV-Cre (Utah University), to a multiplicity of infections (multiplicity of infection, or MOI) of 64. […]
The films were analyzed by the Fiji (Schindelin et al., 2012) and Prim (GraphPad) softwares.
For murine cells, the fluorescence measurements were performed on regions of interest each corresponding to a myotube, with several tens of myotubes measured for each repetition of the experiment.
The intensity of the calcium release was evaluated in response to a stimulation by KCl 140 mM (mimicking a depolarization at ˜0 mV). […]

human control cells CTRL = test: Calcium imaging (Fluo-4, KCl 140 mM stimulation) on human control muscle cells; format: cell-based; conditions: 7 days in differentiation medium
Procedure: The CTRL cells are immortalized human cells from a biopsy of a healthy subject having no calcium release abnormality.
as §1, §2, §3

[3] = tested on: RyR1^Rec mice (model of central core disease); test: Animal grip test (gripping time on inverted grid) in inducible RyR1 KO mice; format: in vivo
Procedure: For this study, an inducible and non-lethal model of KO mice for RyR1 developed in the laboratory was used. In these mice, exons 9 to 11 of the RYR1 gene are flanked by LoxP sites on both alleles (RYR1 fl/fl).
KO was induced by intraperitoneal injections of tamoxifen (Sigma) eight weeks after birth, at 1 mg/day for five days. It is important to note that all animals have received these injections, whether they have the HSA-Cre allele or not.
Exclusively in animals having the HSA-Cre allele, tamoxifen (TAM) causes the translocation of the Cre recombinase to the nucleus, thus allowing the recombination of the LoxP sites and the deletion of exons 9-11 from the RYR1 gene (FIG. 1). In order to improve the understanding, the mice in which the recombination cannot be made will be referred to as the RyR1^Ctrl mice in the following document. The recombinant mice after intraperitoneal administration of TAM will be referred to as RyR1^Rec mice.
For the treatment of animals, fulvestrant was prepared from a commercial solution of Faslodex 250 mg (AstraZeneca). This solution was diluted in physiological serum and 0.27 mg of fulvestrant was injected to each mouse (weight of 20 g) in 50 μl volume. The injections were carried out intramuscularly in the quadriceps once per week.
In order to evaluate the muscular strength of the animals, the mice were placed on a grid which was then turned upside down. The duration during which the mice remain gripped at the grid has been timed to a limit of 300 seconds. This measurement was carried out in a weekly manner over the entire population of mice of the study.
The strength of the animals is followed by a grip test (gripping test) once a week, just before the injections.

SMILES: C[C@]12CC[C@@H]3c4ccc(O)cc4C[C@@H](CCCCCCCCC[S+]([O-])CCCC(F)(F)C(F)(F)F)[C@H]3[C@@H]1CC[C@@H]2O (some centres unmarked) [fulvestrant]
- effect on calcium release ([1]; fulvestrant 100 nM): tends to increase calcium release; also recorded: tendency to improve the calcium release
- effect on calcium release ([1]; fulvestrant 250 nM): tends to increase the release of calcium
- increase of the calcium release peak vs untreated cells [2]: 28%
- magnitude of the calcium release peak (Fluo-4 fluorescence) [2]: 0.40+/−0.04
- effect on calcium release (human control cells CTRL; fulvestrant 100 nM): has no effect; also recorded: does not have an effect
- effect on calcium release (human control cells CTRL; fulvestrant 250 nM): has no effect; also recorded: does not have any effect
- strength (gripping time) vs untreated mice ([3]; female RyR1^Rec mice, intramuscular injection once a week, grip test weekly (limit 300 seconds)): very sharp improvement; also recorded: significantly improved
- strength over the entire duration of the treatment ([3]; mice with induced central core disease, 75 days of treatment): did not lose strength

Reference: patent US20220175795A1, “USE OF FULVESTRANT FOR THE THERAPEUTIC CARE OF CENTRAL CORE DISEASE” (UNIVERSITÉ GRENOBLE ALPES, priority 2019, published 2022)
